Patent US4534898A, “1-Oxa-1-dethia-cephalosporin derivatives” (Merck & Co., Inc., priority 1982, dated 1985)
≈ marks a conversion by molar mass, not a printed value. Where two headings read alike, the source gives them in different places.

Tests used:
Type in all cases: cell-based
[1] = tested on: Staph. aureus Smith; test: MIC against Staph. aureus Smith; conditions: Staphylococcus aureus
Excerpt: (§1) The compounds (I) of this invention are clearly different from various cephem derivatives described in Japanese Patent Pre-publication ("Kokai") No. 25551/78 and U.S. Pat. No. 4,226,866 in respect of the presence of a lower alkyl group at 2-position of the cephem nucleus. […] Minimum inhibitory concentrations (M.I.C.) (μg/ml) of the compounds (I) to various bacteria are set out in Table 1 below.

[2] = tested on: Staph. aureus 209P JC-1; test: MIC against Staph. aureus 209P JC-1; conditions: Staphylococcus aureus
Excerpt: as §1

[3] = tested on: Kl. pneumoniae PCI 602; test: MIC against Kl. pneumoniae PCI 602; conditions: Klebsiella pneumoniae, PCI602
Excerpt: as §1

[4] = tested on: Pr. mirabilis GN79; test: MIC against Pr. mirabilis GN79; conditions: Proteus mirabilis
Excerpt: as §1

[5] = tested on: S. typhimurium LT-2; test: MIC against S. typhimurium LT-2; conditions: Salmonella enterica
Excerpt: as §1

[6] = tested on: Pr. vulgaris GN76; test: MIC against Pr. vulgaris GN76; conditions: Proteus vulgaris
Excerpt: as §1

[7] = tested on: Pr. rettgeri GN624; test: MIC against Pr. rettgeri GN624; conditions: Providencia rettgeri
Excerpt: as §1

[8] = tested on: C. freundii CN346; test: MIC against C. freundii CN346; conditions: Citrobacter freundii
Excerpt: as §1

[9] = tested on: Ent. cloacae G-0006; test: MIC against Ent. cloacae G-0006; conditions: Enterobacter cloacae, G0006
Excerpt: as §1

[10] = tested on: Ser. marcescens No. 2; test: MIC against Ser. marcescens No. 2; conditions: Serratia marcescens
Excerpt: as §1

[11] = tested on: Ps. aeruginosa; test: MIC against Ps. aeruginosa; conditions: Pseudomonas aeruginosa
Excerpt: as §1

[12] = S. typhimurium LT-2, read-out: MIC
[13] = Pr. vulgaris GN76, read-out: MIC
[14] = C. freundii CN346, read-out: MIC
[15] = Ser. marcescens No. 2, read-out: MIC

SMILES: C[C@H]1O[C@@H]2[C@H](NC(=O)Cc3cccs3)C(=O)N2C(C(=O)O)=C1CSc1nnnn1C [compound 1, 7-(2-Thienylacetamido)-2α-methyl-3-(1-methyl-1H--tetrazole-5-yl)thiomethyl-1-oxa-1-dethia-3-cephem-4-carboxylic acid]
- MIC [1]: 0.2 µg/mL (≈ 0.444 µM)
- MIC [2]: 0.2 µg/mL (≈ 0.444 µM)
- MIC [3]: 0.1 µg/mL (≈ 0.222 µM)
- MIC [4]: 0.1 µg/mL (≈ 0.222 µM)
- MIC [5, 12]: 0.025 µg/mL (≈ 0.0555 µM)
- MIC [6, 13]: 0.1 µg/mL (≈ 0.222 µM)
- MIC [7]: 0.05 µg/mL (≈ 0.111 µM)
- MIC [8, 14]: 3.13 µg/mL (≈ 6.95 µM)
- MIC [9]: 25 µg/mL (≈ 55.5 µM)
- MIC [10, 15]: 0.1 µg/mL (≈ 0.222 µM)
- MIC [11]: 12.5 µg/mL (≈ 27.7 µM)

SMILES: C[C@@H]1O[C@@H]2[C@H](NC(=O)Cc3cccs3)C(=O)N2C(C(=O)O)=C1CSc1nnnn1C [compound 2, 7-(2-Thienylacetamido)-2β-methyl-3-(1-methyl-1H--tetrazole-5-yl)thiomethyl-1-oxa-1-dethia-3-cephem-4-carboxylic acid]
- MIC [1]: 0.05 µg/mL (≈ 0.111 µM)
- MIC [2]: 0.025 µg/mL (≈ 0.0555 µM)
- MIC [3]: 1.56 µg/mL (≈ 3.46 µM)
- MIC [4]: 12.5 µg/mL (≈ 27.7 µM)
- MIC [5, 12]: 0.1 µg/mL (≈ 0.222 µM)
- MIC ([6]; GN76): 1.56 µg/mL (≈ 3.46 µM)
- MIC [7]: 12.5 µg/mL (≈ 27.7 µM)
- MIC [8, 14]: 100 µg/mL (≈ 222 µM)
- MIC [9]: 100 µg/mL (≈ 222 µM)
- MIC [10, 15]: 6.25 µg/mL (≈ 13.9 µM)
- MIC [11]: > 100 µg/mL

SMILES: CO[C@@]1(NC(=O)Cc2cccs2)C(=O)N2C(C(=O)O)=C(CSc3nnnn3C)[C@@H](C)O[C@@H]21 [compound 3, 7β-(2-Thienylacetamido)-7α-methoxy-2α-methyl-3-(1-methyl-1H--tetrazole-5-yl)thiomethyl-1-oxa-1-dethia-3-cephem-4-carboxylic acid]
- MIC [1]: 0.39 µg/mL (≈ 0.812 µM)
- MIC [2]: 0.39 µg/mL (≈ 0.812 µM)
- MIC [3]: 25 µg/mL (≈ 52 µM)
- MIC [4]: > 100 µg/mL
- MIC ([5]; TYPHIMURIUM): 1.56 µg/mL (≈ 3.25 µM)
- MIC [6, 13]: 12.5 µg/mL (≈ 26 µM)
- MIC [7]: > 100 µg/mL
- MIC [8, 14]: > 100 µg/mL
- MIC [9]: > 100 µg/mL
- MIC [10, 15]: 12.5 µg/mL (≈ 26 µM)
- MIC [11]: > 100 µg/mL

SMILES: CO[C@@]1(NC(=O)Cc2cccs2)C(=O)N2C(C(=O)O)=C(CSc3nnnn3C)[C@H](C)O[C@@H]21 [compound 4, 7β-(2-Thienylacetamido)-7α-methoxy-2β-methyl-3-(1-methyl-1H--tetrazole-5-yl)thiomethyl-1-oxa-1-dethia-3-cephem-4-carboxylic acid]
- MIC [1]: 0.2 µg/mL (≈ 0.416 µM)
- MIC [2]: 0.2 µg/mL (≈ 0.416 µM)
- MIC [3]: 1.56 µg/mL (≈ 3.25 µM)
- MIC [4]: 12.5 µg/mL (≈ 26 µM)
- MIC [5, 12]: 0.05 µg/mL (≈ 0.104 µM)
- MIC [6, 13]: 0.39 µg/mL (≈ 0.812 µM)
- MIC [7]: 25 µg/mL (≈ 52 µM)
- MIC [8, 14]: 100 µg/mL (≈ 208 µM)
- MIC [9]: 100 µg/mL (≈ 208 µM)
- MIC ([10]; NO.2): 1.56 µg/mL (≈ 3.25 µM)
- MIC [11]: > 100 µg/mL

SMILES: CO[C@@]1(NC(=O)C(C(=O)O)c2cccs2)C(=O)N2C(C(=O)O)=C(CSc3nnnn3C)[C@@H](C)O[C@@H]21 (stereo partly drawn) [compound 5, 7β-[2-(2-Thienyl)-2-carboxyacetamido]-7α-methoxy-2α-methyl-3-(1-methyl-1H--tetrazole-5-yl)thiomethyl-1-oxa-1-dethia-3-cephem-4-carboxylic acid]
- MIC [1]: 0.78 µg/mL (≈ 1.49 µM)
- MIC [2]: 0.78 µg/mL (≈ 1.49 µM)
- MIC [3]: 1.56 µg/mL (≈ 2.97 µM)
- MIC [4]: 0.78 µg/mL (≈ 1.49 µM)
- MIC [5, 12]: 0.1 µg/mL (≈ 0.191 µM)
- MIC [6, 13]: 0.39 µg/mL (≈ 0.744 µM)
- MIC [7]: 3.13 µg/mL (≈ 5.97 µM)
- MIC [8, 14]: 25 µg/mL (≈ 47.7 µM)
- MIC [9]: 100 µg/mL (≈ 191 µM)
- MIC [10, 15]: 0.78 µg/mL (≈ 1.49 µM)
- MIC [11]: 100 µg/mL (≈ 191 µM)

SMILES: CO[C@@]1(NC(=O)C(C(=O)O)c2cccs2)C(=O)N2C(C(=O)O)=C(CSc3nnnn3C)[C@H](C)O[C@@H]21 (stereo partly drawn) [compound 6, 7β-[2-(2-Thienyl)-2-carboxyacetamido]-7α-methoxy-2β-methyl-3-(1-methyl-1H--tetrazole-5-yl)thiomethyl-1-oxa-1-dethia-3-cephem-4-carboxylic acid]
- MIC [1]: 0.78 µg/mL (≈ 1.49 µM)
- MIC [2]: 0.39 µg/mL (≈ 0.744 µM)
- MIC [3]: 1.56 µg/mL (≈ 2.97 µM)
- MIC [4]: 0.1 µg/mL (≈ 0.191 µM)
- MIC [5, 12]: ≤ 0.025 µg/mL
- MIC [6, 13]: 0.1 µg/mL (≈ 0.191 µM)
- MIC [7]: ≤ 0.025 µg/mL
- MIC ([8]; CN346): 1.56 µg/mL (≈ 2.97 µM)
- MIC [9]: 6.25 µg/mL (≈ 11.9 µM)
- MIC [10, 15]: 0.2 µg/mL (≈ 0.381 µM)
- MIC [11]: 25 µg/mL (≈ 47.7 µM)

SMILES: CO[C@@]1(NC(=O)C(C(=O)O)c2ccsc2)C(=O)N2C(C(=O)O)=C(CSc3nnnn3C)[C@H](C)O[C@@H]21 (stereo partly drawn) [compound 7, 7β-[2-(3-Thienyl)-2-carboxyacetamido]-7α-methoxy-2β-methyl-3-(1-methyl-1H--tetrazole-5-yl)thiomethyl-1-oxa-1-dethia-3-cephem-4-carboxylic acid]
- MIC [1]: 1.56 µg/mL (≈ 2.97 µM)
- MIC [2]: 1.56 µg/mL (≈ 2.97 µM)
- MIC [3]: 0.05 µg/mL (≈ 0.0953 µM)
- MIC [4]: 0.2 µg/mL (≈ 0.381 µM)
- MIC [5, 12]: ≤ 0.025 µg/mL
- MIC [6, 13]: 0.1 µg/mL (≈ 0.191 µM)
- MIC [7]: 0.05 µg/mL (≈ 0.0953 µM)
- MIC [8, 14]: 1.56 µg/mL (≈ 2.97 µM)
- MIC [9]: 3.13 µg/mL (≈ 5.97 µM)
- MIC [10, 15]: 0.2 µg/mL (≈ 0.381 µM)
- MIC [11]: 25 µg/mL (≈ 47.7 µM)
